Tests used:
Test in all cases: relative viability (nuclei count vs DMSO), 5 days (fraction); higher = more cells survive
[1] = compound: Cc1ccc(C(=O)Nc2ccc(CN3CCN(C)CC3)c(C(F)(F)F)c2)cc1C#Cc1cnc2cccnn12 [Ponatinib] + N=C(N)NC(=N)NCCc1ccccc1 [Phenformin] (partner 250 µM)
How it was run: (§1)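 Cells from lung cancer lines were seeded into 1536-well plates and, one day later, dosed by pin tool. Treatments were either a single drug or a fixed dose of an anchor drug with five library-drug doses (not always all listed) in √10 steps. After 5 days, nuclei were stained in a one-step fixation (final 0.05% Triton X-100, 1% formaldehyde, 1 ug/ml Hoechst) and counted on 4× images, and relative viability is the treated-to-vehicle nuclei ratio, as the median of duplicate plates.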

[2] = compound: Cc1ccc(Nc2nccc(N(C)c3ccc4c(C)n(C)nc4c3)n2)cc1S(N)(=O)=O [Pazopanib] + CC(=O)Nc1cccc(-n2c(=O)n(C3CC3)c(=O)c3c(Nc4ccc(I)cc4F)n(C)c(=O)c(C)c32)c1 [Trametinib] (partner 0.02 µM)
How it was run: as §1

[3] = compound: Cc1ccc(Nc2nccc(N(C)c3ccc4c(C)n(C)nc4c3)n2)cc1S(N)(=O)=O [Pazopanib] + CS(=O)(=O)N1CCN(Cc2cc3nc(-c4cccc5[nH]ncc45)nc(N4CCOCC4)c3s2)CC1 [Pictilisib] (partner 1 µM)
How it was run: as §1

[4] = compound: Cc1ccc(Nc2nccc(N(C)c3ccc4c(C)n(C)nc4c3)n2)cc1S(N)(=O)=O [Pazopanib] + O=C(CCCCCCC(=O)Nc1ccccc1)NO [Vorinostat] (partner 1 µM)
How it was run: as §1

Cell Line | relative viability ([1]; first compound 0.002 µM) | relative viability ([1]; first compound 0.006325 µM) | relative viability ([1]; first compound 0.06325 µM) | relative viability ([1]; first compound 0.2 µM) | relative viability ([2]; first compound 0.01 µM) | relative viability ([2]; first compound 0.03162 µM) | relative viability ([2]; first compound 0.1 µM) | relative viability ([2]; first compound 0.3162 µM) | relative viability ([2]; first compound 1 µM) | relative viability ([3]; first compound 0.01 µM) | relative viability ([3]; first compound 0.03162 µM) | relative viability ([3]; first compound 0.1 µM) | relative viability ([3]; first compound 0.3162 µM) | relative viability ([3]; first compound 1 µM) | relative viability ([4]; first compound 0.01 µM) | relative viability ([4]; first compound 0.03162 µM) | relative viability ([4]; first compound 0.1 µM) | relative viability ([4]; first compound 0.3162 µM) | relative viability ([4]; first compound 1 µM)
NCI-H2228 | 0.356 | 0.356 | 0.342 | 0.357 | 0.353 | 0.501 | 0.425 | 0.32 | 0.759 | 0.46 | 0.386 | 0.328 | 0.393 | 0.511 | 1.12 | 1.01 | 0.706 | 0.59 | 0.619
NCI-H2347 | 0.34 | 0.393 | 0.38 | 0.34 | 0.211 | 0.281 | 0.303 | 0.282 | 0.281 | 0.513 | 0.648 | 0.417 | 0.601 | 0.548 | 0.522 | 0.593 | 0.736 | 0.587 | 0.83
NCI-H2405 | 0.359 | 0.44 | 0.386 | 0.329 | 0.562 | 0.672 | 0.666 | 0.644 | 0.524 | 0.321 | 0.514 | 0.424 | 0.583 | 0.586 | 0.925 | 1.16 | 0.93 | 1.11 | 1.16
NCI-H3122 | 0.301 | 0.378 | 0.384 | 0.356 | 0.248 | 0.256 | 0.219 | 0.25 | 0.251 | 0.516 | 0.638 | 0.689 | 0.688 | 0.803 | 0.794 | 0.926 | 0.89 | 1.02 | 1.05
PC-3 [JPC-3] | 0.461 | 0.502 | 0.502 | 0.477 | – | 0.686 | 0.73 | 0.835 | 0.65 | 0.745 | 0.707 | 0.808 | 0.73 | 0.716 | – | 0.79 | 0.597 | 0.973 | 0.93
PC-14 | 0.443 | 0.619 | 0.665 | 0.605 | 0.834 | 0.775 | 0.896 | 1.09 | 0.766 | 0.64 | 0.612 | 0.88 | 0.637 | 0.686 | 0.81 | 0.87 | 0.669 | 0.786 | 0.751
RERF-LC-KJ | 0.41 | 0.417 | 0.482 | 0.426 | 0.82 | 0.892 | 0.842 | 0.805 | 0.853 | 0.447 | 0.562 | 0.559 | 0.495 | 0.487 | 0.63 | 0.79 | 0.622 | 0.601 | 0.596
SK-LU-1 | 0.445 | 0.469 | 0.475 | 0.328 | 0.42 | 0.499 | 0.516 | 0.54 | 0.54 | 0.434 | 0.636 | 0.543 | 0.633 | 0.589 | 0.756 | 0.852 | 0.755 | 0.621 | 0.861
SK-MES-1 | 0.676 | 0.65 | 0.716 | 0.548 | 0.537 | 0.555 | 0.621 | 0.725 | 0.628 | 0.39 | 0.365 | 0.391 | 0.379 | 0.335 | 1.03 | 0.989 | 1.27 | 1.09 | 1.07
SW 1573 | 0.35 | 0.392 | 0.292 | 0.405 | 0.604 | 0.671 | 0.604 | 0.649 | 0.494 | 0.412 | 0.531 | 0.514 | 0.632 | 0.537 | 0.641 | 0.692 | 0.648 | 0.992 | 0.525
UMC-11 | 0.305 | 0.33 | 0.366 | 0.317 | 0.552 | 0.732 | 0.672 | 0.756 | 0.846 | 0.724 | 0.879 | 0.787 | 0.928 | 1.13 | 0.353 | 0.306 | 0.368 | 0.371 | 0.446
